This note sets out measurements from US20080255155A1, “KINASE INHIBITORS AND USES THEREOF” (priority 2006, published 2008).

Assay [1] deals with T1, recombinant human c-Met/HGF receptor (Homo sapiens, UniProt P08581).
T1 construct: His tag; made in house; host or cells: Hi-5 cells (Trichoplusia ni), recombinant baculovirus
The assay is described as follows: In vitro receptor tyrosine kinase assay, c-Met (DELFIA). The format is biochemical. The following applies: ATP 10 uM, enzyme 25 nM; read-out: Potency in enzyme assays Cmet. From the text: (§1) These tests measure the ability of compounds to inhibit the enzymatic activity of recombinant human c-Met/HGF receptor and VEGF receptor enzymatic activity.
A 1.3-kb cDNA corresponding to the intracellular domain of c-Met or c-Met IC (Genbank accession number NP000236-1 amino acid […]) is cloned into the BamHI/XhoI sites of the pBlueBacHis2A vector (Invitrogen) for the production of a histidine-tagged version of that enzyme. This construct is used to generate recombinant baculovirus using the Bac-N-Blue™ system according to the manufacturer's instructions (Invitrogen).
The c-Met IC protein is expressed in Hi-5 cells (Trichoplusia Ni) upon infection with recombinant baculovirus construct. Briefly, Hi-5 cells grown in suspension and maintained in serum-free medium (Sf900 II supplemented with gentamycin) at a cell density of about 2×10^6 cells/ml are infected with the above-mentioned viruses at a multiplicity of infection (MOI) of 0.2 during 72 hours at 27° C. with agitation at 120 rpm on a rotary shaker. Infected cells are harvested by centrifugation at 398 g for 15 min. Cell pellets are frozen at −80° C. until purification is performed.
All steps described in cell extraction and purification are performed at 4° C. Frozen Hi-5 cell pellets infected with the C-Met IC recombinant baculovirus are thawed and gently resuspended in Buffer A (20 mM Tris pH 8.0, 10% glycerol, 1 μg/ml pepstatin, 2 μg/ml Aprotinin and leupeptin, 50 μg/ml PMSF, 50 μg/ml TLCK and 10 μM E64, 0.5 mM DTT and 1 mM Levamisole) using 3 ml of buffer per gram of cells. The suspension is Dounce homogenized after which it is centrifuged at 22500 g, 30 min., 4° C. The supernatant (cell extract) is used as starting material for purification of c-Met IC.
The supernatant is loaded onto a QsepharoseFF column (Amersham Biosciences) equilibrated with Buffer B (20 mM Tris pH 8.0, 10% glycerol) supplemented with 0.05M NaCl. Following a ten column volume (CV) wash with equilibration buffer, bound proteins are eluted with a 5 CV salt linear gradient spanning from 0.05 to 1M NaCl in Buffer B. Typically, the conductivity of selected fractions rank between 6.5 and 37 mS/cm. This Qsepharose eluate has an estimated NaCl concentration of 0.33M and is supplemented with a 5M NaCl solution in order to increase NaCl concentration at 0.5M and also with a 5M Imidazole (pH 8.0) solution to achieve a final imidazole concentration of 15 mM. This material is loaded onto a HisTrap affinity column (GE Healthcare) equilibrated with Buffer C (50 mM NaPO4 pH 8.0, 0.5M NaCl, 10% glycerol) supplemented with 15 mM imidazole. After a 10 CV wash with equilibration buffer and an 8 CV wash with buffer C+40 mM imidazole, bound proteins are eluted with an 8 CV linear gradient (15 to 500 mM) of imidazole in buffer C. C-Met IC enriched fractions from this chromatography step are pooled based on SDS-PAGE analysis. This pool of enzyme undergoes buffer exchange using PD-10 column (GE Healthcare) against buffer D (25 mM HEPES pH 7.5, 0.1M NaCl, 10% glycerol and 2 mM β-mercaptoethanol). Final C-Met IC protein preparations concentrations are about 0.5 mg/ml with purity approximating 80%. Purified c-Met IC protein stocks are supplemented with BSA at 1 mg/ml, aliquoted and frozen at −80° C. prior to use in enzymatic assay.
Inhibition of c-Met/HGF receptor and VEGFR/KDR is measured in a DELFIA™ assay (Perkin Elmer). The substrate poly(Glu4,Tyr) is immobilized onto black high-binding polystyrene 96-well plates. The coated plates are washed and stored at 4° C. During the assay, enzymes are pre-incubated with inhibitor and Mg-ATP on ice in polypropylene 96-well plates for 4 minutes, and then transferred to the coated plates. The subsequent kinase reaction takes place at 30° C. for 10-30 minutes. ATP concentrations in the assay are 10 uM for C-Met (5× the Km) and 0.6 uM for VEGFR/KDR (2× the Km). Enzyme concentration is 25 nM (C-Met) or 5 nM (VEGFR/KDR). […]

The next assay deals with T2, VEGF receptor KDR (Homo sapiens, UniProt P35968).
T2 construct: made in house; host or cells: Sf9 cells (Spodoptera frugiperda), recombinant baculovirus
T2 sequence (P35968 806-1356): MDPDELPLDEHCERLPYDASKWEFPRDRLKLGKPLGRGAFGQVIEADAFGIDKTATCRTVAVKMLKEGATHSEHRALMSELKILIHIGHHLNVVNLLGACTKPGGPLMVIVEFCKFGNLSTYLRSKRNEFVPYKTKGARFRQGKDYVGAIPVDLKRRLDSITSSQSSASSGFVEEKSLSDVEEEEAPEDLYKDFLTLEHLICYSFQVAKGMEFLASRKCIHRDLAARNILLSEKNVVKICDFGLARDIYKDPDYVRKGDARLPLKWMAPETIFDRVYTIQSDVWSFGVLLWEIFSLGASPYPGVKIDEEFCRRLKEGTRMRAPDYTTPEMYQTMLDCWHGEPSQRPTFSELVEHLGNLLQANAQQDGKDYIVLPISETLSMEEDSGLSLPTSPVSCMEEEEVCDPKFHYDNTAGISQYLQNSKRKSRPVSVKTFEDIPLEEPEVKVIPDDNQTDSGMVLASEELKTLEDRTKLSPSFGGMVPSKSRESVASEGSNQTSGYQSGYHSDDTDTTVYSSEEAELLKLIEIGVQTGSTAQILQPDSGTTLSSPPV
The assay is described as follows: In vitro receptor tyrosine kinase assay, VEGF receptor KDR (DELFIA). It counts as biochemical. The following applies: ATP 0.6 uM, enzyme 5 nM; read-out: Potency in enzyme assays VEGF.
Description: as §1
In the case of VEGF receptor KDR a 1.6-kb cDNA corresponding to the catalytic domain of VEGFR2 or KDR (Genbank accession number AF035121 amino acid 806 to 1356) is cloned into the Pst I site of the pDEST20 Gateway vector (Invitrogen) for the production of a GST-tagged version of that enzyme. This construct is used to generate recombinant baculovirus using the Bac-to-Bac system according to the manufacturer's instructions (Invitrogen).
The GST-VEGFR2806-1356 protein is expressed in Sf9 cells (Spodoptera frugiperda) upon infection with recombinant baculovirus construct. Briefly, Sf9 cells grown in suspension and maintained in serum-free medium (Sf900 II supplemented with gentamycin) at a cell density of about 2×10^6 cells/ml are infected with the above-mentioned viruses at a multiplicity of infection (MOI) of 0.1 during 72 hours at 27° C. with agitation at 120 rpm on a rotary shaker. Infected cells are harvested by centrifugation at 398 g for 15 min. Cell pellets are frozen at −80° C. until purification is performed.
All steps described in cell extraction and purification are performed at 4° C. Frozen Sf9 cell pellets infected with the GST-VEGFR2806-1356 recombinant baculovirus re thawed and gently resuspended in Buffer A (PBS pH 7.3 supplemented with 1 μg/ml pepstatin, 2 μg/ml Aprotinin and leupeptin, 50 μg/ml PMSF, 50 μg/ml TLCK and 10 μM E64 and 0.5 mM DTT) using 3 ml of buffer per gram of cells. Suspension is Dounce homogenized and 1% Triton X-100 is added to the homogenate after which it is centrifuged at 22500 g, 30 min., 4° C. The supernatant (cell extract) is used as starting material for purification of GST-VEGFR2806-1356.
The supernatant is loaded onto a GST-agarose column (Sigma) equilibrated with PBS pH 7.3. Following a four column volume (CV) wash with PBS pH 7.3+1% Triton X-100 and 4 CV wash with buffer B (50 mM Tris pH 8.0, 20% glycerol and 100 mM NaCl), bound proteins are step eluted with 5 CV of buffer B supplemented with 5 mM DTT and 15 mM glutathion. GST-VEGFR2806-1356 enriched fractions from this chromatography step are pooled based on U.V. trace i.e. fractions with high O.D^-280- Final GST-VEGFR2806-1356 protein preparations concentrations are about 0.7 mg/ml with purity approximating 70%. Purified GST-VEGFR2806-1356 protein stocks are aliquoted and frozen at −80° C. prior to use in enzymatic assay.
Inhibition of c-Met/HGF receptor and VEGFR/KDR is measured in a DELFIA™ assay (Perkin Elmer). The substrate poly(Glu4,Tyr) is immobilized onto black high-binding polystyrene 96-well plates. The coated plates are washed and stored at 4° C. During the assay, enzymes are pre-incubated with inhibitor and Mg-ATP on ice in polypropylene 96-well plates for 4 minutes, and then transferred to the coated plates. The subsequent kinase reaction takes place at 30° C. for 10-30 minutes. ATP concentrations in the assay are 10 uM for C-Met (5× the Km) and 0.6 uM for VEGFR/KDR (2× the Km). Enzyme concentration is 25 nM (C-Met) or 5 nM (VEGFR/KDR). After incubation, the kinase reactions are quenched with EDTA and the plates are washed. Phosphorylated product is detected by incubation with Europium-labeled anti-phosphotyrosine MoAb. After washing the plates, bound MoAb is detected by time-resolved fluorescence in a Gemini SpectraMax reader (Molecular Devices). Compounds are evaluated over a range of concentrations and IC50's (concentration of compounds giving 50% inhibition of enzymatic activity) are determined.

The test system of the next assay is A549. In words: A549 wound healing inhibition. The following applies: Homo sapiens; A549 cells; read-out: Potency in cell-based assays A549 wound healing inhibition.
The subject of the next assay is DU145. In words: DU145 scattering inhibition. The following applies: Homo sapiens, DU-145; DU145 cells; read-out: Potency in cell-based assays DU145 scattering inhibition.

T1 sequence (P08581 1078-1337): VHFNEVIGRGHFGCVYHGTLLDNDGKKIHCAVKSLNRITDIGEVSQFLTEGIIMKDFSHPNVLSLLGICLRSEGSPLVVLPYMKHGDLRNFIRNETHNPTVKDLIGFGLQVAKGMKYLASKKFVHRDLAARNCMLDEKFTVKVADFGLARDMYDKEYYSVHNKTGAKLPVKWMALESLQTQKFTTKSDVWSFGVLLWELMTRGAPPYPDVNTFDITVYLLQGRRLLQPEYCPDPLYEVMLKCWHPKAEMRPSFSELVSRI

For the compound `O=C(CC(Nc1ccc(F)cc1)C(F)(F)F)Nc1ccc(Oc2cc(NC(=O)N3CCCC3)ncn2)c(F)c1` (centres unmarked) [Compound 9a, N-(6-(2-Fluoro-4-(4,4,4-trifluoro-3-(4-fluorophenylamino)butanamido)phenoxy)pyrimidin-4-yl)pyrrolidine-1-carboxamide], the IC50 in assay [1] was ≥ 1 µM; on VEGF receptor KDR, ≥ 1 µM; in the assay with A549, 1 to 5 µM; in the assay on DU145 it was 5 to 10 µM.

Consider `CN(C)[C@@H]1CCN(C(=O)Nc2cc(Oc3ccc(NC(=O)N4CCN(c5ccc(F)cc5)C4=O)cc3F)ccn2)C1` [Compound 18g, (R)-N-(4-(2-(3-(dimethylamino)pyrrolidine-1-carboxamido)pyridin-4-yloxy)-3-fluorophenyl)-3-(4-fluorophenyl)-2-oxoimidazolidine-1-carboxamide], for which the IC50 in assay [1] was < 0.25 µM; on VEGF receptor KDR, < 0.25 µM; in the assay with A549, ≥ 1 µM; in the assay on DU145, ≥ 1 µM.

In the case of `O=C(Nc1cc(Oc2ccc(NC(=O)N3CCN(c4ccccc4)C3=O)cc2F)ncn1)N1CCCC1` [Compound 9c, N-(3-Fluoro-4-(6-(pyrrolidine-1-carboxamido)pyrimidin-4-yloxy)phenyl)-2-oxo-3-phenylimidazolidine-1-carboxamide], the IC50 in assay [1] is < 0.25 µM; on VEGF receptor KDR, < 0.25 µM; in the assay with A549 it was 1 to 5 µM; in the assay on DU145, 5 to 10 µM.

On to `CNC(=O)c1cc(Oc2ccc(NC(=O)N3CCN(c4ccccc4)C3=O)cc2F)ccn1` [Compound 87a, 4-(2-fluoro-4-(2-oxo-3-phenylimidazolidine-1-carboxamido)phenoxy)-N-methylpicolinamide], for which the IC50 lay within 0.25 to 0.5 µM in assay [1], 0.25 to 0.5 µM on VEGF receptor KDR, 1 to 5 µM with A549 and 5 to 10 µM in the assay with DU145.

Turning to `O=C(CC(Nc1ccc(Oc2cc(NC(=O)N3CCCC3)ncn2)c(F)c1)C(F)(F)F)Nc1ccccc1` (centres unmarked) [Compound 13, N-(6-(2-Fluoro-4-(1,1,1-trifluoro-4-oxo-4-(phenylamino)butan-2-ylamino)phenoxy)pyrimidin-4-yl)pyrrolidine-1-carboxamide], the IC50 in assay [1] is ≥ 1 µM; at VEGF receptor KDR, < 0.25 µM; in the assay on A549, 5 to 10 µM; in the assay with DU145 it was 5 to 10 µM.

As for `O=C(Nc1ccc(Oc2ccncc2)c(F)c1)N1CCN(c2cccc(C(F)(F)F)c2)C1=O` [Compound 21c, N-(3-fluoro-4-(pyridin-4-yloxy)phenyl)-2-oxo-3-(3-(trifluoromethyl)phenyl)imidazolidine-1-carboxamide], the IC50 in assay [1] was ≥ 1 µM; at VEGF receptor KDR, ≥ 1 µM; with A549, 5 to 10 µM; in the assay on DU145, 5 to 10 µM.

Take `O=C(Nc1ccc(Oc2cc(NC(=O)N3CCCC3)ncn2)c(F)c1)C1CCN(c2ccccc2)C1=O` (centres unmarked) [Compound 9b, N-(6-(2-Fluoro-4-(2-oxo-1-phenylpyrrolidine-3-carboxamido)phenoxy)pyrimidin-4-yl)pyrrolidine-1-carboxamide]: the IC50 in assay [1] is ≥ 1 µM; at VEGF receptor KDR, ≥ 1 µM; in the assay on A549 it was 5 to 10 µM; with DU145, 5 to 10 µM.

On to `O=C(NCCN1CCOCC1)c1cc(Oc2ccc(NC(=O)N3CCN(c4ccccc4)C3=O)cc2F)ccn1` [Compound 87c], for which the IC50 was ≥ 1 µM in assay [1], ≥ 1 µM at VEGF receptor KDR, > 10 µM with A549 and > 10 µM in the assay with DU145.

Regarding `O=C(Nc1ccc(Oc2ccncc2)c(F)c1)N1CCN(c2cccc(Cl)c2)C1=O` [Compound 21g, 3-(3-chlorophenyl)-N-(3-fluoro-4-(pyridin-4-yloxy)phenyl)-2-oxoimidazolidine-1-carboxamide], the IC50 was 0.5 to 1 µM in assay [1], ≥ 1 µM on VEGF receptor KDR, 5 to 10 µM with A549 and 5 to 10 µM in the assay on DU145.

Consider `O=C(NCCN1CCOCC1)c1cc(Oc2ccc(NC(=O)N3CCN(c4ccc(F)cc4)C3=O)cc2F)ccn1` [Compound 87d, 4-(2-fluoro-4-(3-(4-fluorophenyl)-2-oxoimidazolidine-1-carboxamido)phenoxy)-N-(2-morpholinoethyl)picolinamide], for which the IC50 in assay [1] was ≥ 1 µM; on VEGF receptor KDR, > 1 µM.
